This assay is described as follows: Displacement of [125I]-ASOR from asialoglycoprotein receptor in mouse parenchymal liver cells after 2 hrs. In general terms: In a radioligand displacement assay an active substance lowers the binding of a labelled ligand.

As for `COc1cc2c(c(OC)c1OC)-c1ccc(OC)c(=O)cc1[C@@H](NC(=O)CCSSCCC(=O)NC(CCCCNC(=O)[C@@H](CCCCNC(=O)CCCCO[C@@H]1O[C@H](CO)[C@H](O)[C@H](O)[C@H]1NC(C)=O)NC(=O)CCCCO[C@@H]1O[C@H](CO)[C@H](O)[C@H](O)[C@H]1NC(C)=O)C(=O)O)CC2` (stereo partly specified), the Ki amounted to 4.5 nM.

For orientation: Ki means a measure of affinity in units of concentration, obtained from inhibition or displacement.

Source of the values: ChEMBL document CHEMBL4145450, “Colchicine prodrugs and codrugs: Chemistry and bioactivities” (Eur J Med Chem, 2018).
